# Source: ChEMBL document CHEMBL4190317, “Design, synthesis, and biological evaluation of novel 3-substituted imidazo[1,2-a]pyridine and quinazolin-4(3H)-one derivatives as PI3Kα inhibitors” (Eur J Med Chem, 2017)
# Test system: A549
# Experiment: cells
# Conditions: Homo sapiens, A549, 72 h
# Description: Antiproliferative activity against human A549 cells after 72 hrs by SRB assay
row,IC50 [nM],Structure (SMILES)
1,230,CCOC(=O)c1cnc2ccc(-c3cnc(OC)c(NS(C)(=O)=O)c3)cn12
2,1620,COc1ncc(-c2ccc3ncc(C(=O)N4CCC(OC(=O)c5ccccc5)CC4)n3c2)cc1NS(=O)(=O)c1ccc(F)cc1F
3,510,CCOC(=O)c1cnc2ccc(-c3cnc(OC)c(NS(=O)(=O)c4ccc(F)cc4)c3)cn12
4,> 20000,CCOC(=O)c1cn2cc(-c3cnc(OC)c(NS(=O)(=O)c4ccc(F)cc4)c3)ccc2n1
5,3560,CCCCS(=O)(=O)Nc1cc(-c2ccc3ncc(C(=O)OCC)n3c2)cnc1OC
6,100,CCOC(=O)Cn1cnc2ccc(-c3cnc(OC)c(NS(=O)(=O)c4ccc(F)cc4F)c3)cc2c1=O
7,7600,COc1ncc(-c2ccc3ncn(CCCCCC(=O)N4CCOCC4)c(=O)c3c2)cc1NS(=O)(=O)c1ccc(F)cc1F
8,400,COc1ncc(-c2ccc3ncc(C(=O)NCCN(C)C)n3c2)cc1NS(=O)(=O)c1ccc(F)cc1F
9,> 20000,CCOC(=O)c1cc2cc(-c3cnc(OC)c(NS(=O)(=O)c4ccc(F)cc4)c3)ccc2[nH]1
10,480,COc1ncc(-c2ccc3ncc(C(=O)N4CCC(O)CC4)n3c2)cc1NS(=O)(=O)c1ccc(F)cc1F
11,200,COc1ncc(-c2ccc3ncn(CCCn4cccn4)c(=O)c3c2)cc1NS(=O)(=O)c1ccc(F)cc1F

# Test system: HCT-116
# Experiment: cells
# Conditions: Homo sapiens, HCT-116, 72 h
row,IC50 [nM],Structure (SMILES)
1,320,CCOC(=O)c1cnc2ccc(-c3cnc(OC)c(NS(C)(=O)=O)c3)cn12
2,1230,COc1ncc(-c2ccc3ncc(C(=O)N4CCC(OC(=O)c5ccccc5)CC4)n3c2)cc1NS(=O)(=O)c1ccc(F)cc1F
3,640,CCOC(=O)c1cnc2ccc(-c3cnc(OC)c(NS(=O)(=O)c4ccc(F)cc4)c3)cn12
4,> 20000,CCOC(=O)c1cn2cc(-c3cnc(OC)c(NS(=O)(=O)c4ccc(F)cc4)c3)ccc2n1
5,4940,CCCCS(=O)(=O)Nc1cc(-c2ccc3ncc(C(=O)OCC)n3c2)cnc1OC
6,820,CCOC(=O)Cn1cnc2ccc(-c3cnc(OC)c(NS(=O)(=O)c4ccc(F)cc4F)c3)cc2c1=O
7,2230,COc1ncc(-c2ccc3ncn(CCCCCC(=O)N4CCOCC4)c(=O)c3c2)cc1NS(=O)(=O)c1ccc(F)cc1F
8,140,COc1ncc(-c2ccc3ncc(C(=O)NCCN(C)C)n3c2)cc1NS(=O)(=O)c1ccc(F)cc1F
9,1300,CCOC(=O)c1cc2cc(-c3cnc(OC)c(NS(=O)(=O)c4ccc(F)cc4)c3)ccc2[nH]1
10,490,COc1ncc(-c2ccc3ncc(C(=O)N4CCC(O)CC4)n3c2)cc1NS(=O)(=O)c1ccc(F)cc1F
11,4000,COc1ncc(-c2ccc3ncn(CCCn4cccn4)c(=O)c3c2)cc1NS(=O)(=O)c1ccc(F)cc1F

# Test system: SNU-638
# Experiment: Antiproliferative activity against human SNU638 cells after 72 hrs by SRB assay
# Conditions: SNU-638, 72 h
row,IC50 [nM],Structure (SMILES)
1,90,CCOC(=O)c1cnc2ccc(-c3cnc(OC)c(NS(C)(=O)=O)c3)cn12
2,1390,COc1ncc(-c2ccc3ncc(C(=O)N4CCC(OC(=O)c5ccccc5)CC4)n3c2)cc1NS(=O)(=O)c1ccc(F)cc1F
3,> 20000,CCOC(=O)c1cnc2ccc(-c3cnc(OC)c(NS(=O)(=O)c4ccc(F)cc4)c3)cn12
4,> 20000,CCOC(=O)c1cn2cc(-c3cnc(OC)c(NS(=O)(=O)c4ccc(F)cc4)c3)ccc2n1
5,510,CCCCS(=O)(=O)Nc1cc(-c2ccc3ncc(C(=O)OCC)n3c2)cnc1OC
6,300,CCOC(=O)Cn1cnc2ccc(-c3cnc(OC)c(NS(=O)(=O)c4ccc(F)cc4F)c3)cc2c1=O
7,19700,COc1ncc(-c2ccc3ncn(CCCCCC(=O)N4CCOCC4)c(=O)c3c2)cc1NS(=O)(=O)c1ccc(F)cc1F
8,510,COc1ncc(-c2ccc3ncc(C(=O)NCCN(C)C)n3c2)cc1NS(=O)(=O)c1ccc(F)cc1F
9,15900,CCOC(=O)c1cc2cc(-c3cnc(OC)c(NS(=O)(=O)c4ccc(F)cc4)c3)ccc2[nH]1
10,270,COc1ncc(-c2ccc3ncc(C(=O)N4CCC(O)CC4)n3c2)cc1NS(=O)(=O)c1ccc(F)cc1F
11,360,COc1ncc(-c2ccc3ncn(CCCn4cccn4)c(=O)c3c2)cc1NS(=O)(=O)c1ccc(F)cc1F

# Test system: SK-HEP1
# Experiment: Antiproliferative activity against human SKHEP1 cells after 72 hrs by SRB assay
# Conditions: SK-HEP1, 72 h
row,IC50 [nM],Structure (SMILES)
1,170,CCOC(=O)c1cnc2ccc(-c3cnc(OC)c(NS(C)(=O)=O)c3)cn12
2,2050,COc1ncc(-c2ccc3ncc(C(=O)N4CCC(OC(=O)c5ccccc5)CC4)n3c2)cc1NS(=O)(=O)c1ccc(F)cc1F
3,> 20000,CCOC(=O)c1cnc2ccc(-c3cnc(OC)c(NS(=O)(=O)c4ccc(F)cc4)c3)cn12
4,> 20000,CCOC(=O)c1cn2cc(-c3cnc(OC)c(NS(=O)(=O)c4ccc(F)cc4)c3)ccc2n1
5,830,CCCCS(=O)(=O)Nc1cc(-c2ccc3ncc(C(=O)OCC)n3c2)cnc1OC
6,1400,CCOC(=O)Cn1cnc2ccc(-c3cnc(OC)c(NS(=O)(=O)c4ccc(F)cc4F)c3)cc2c1=O
7,11500,COc1ncc(-c2ccc3ncn(CCCCCC(=O)N4CCOCC4)c(=O)c3c2)cc1NS(=O)(=O)c1ccc(F)cc1F
8,> 20000,COc1ncc(-c2ccc3ncc(C(=O)NCCN(C)C)n3c2)cc1NS(=O)(=O)c1ccc(F)cc1F
9,300,CCOC(=O)c1cc2cc(-c3cnc(OC)c(NS(=O)(=O)c4ccc(F)cc4)c3)ccc2[nH]1
10,790,COc1ncc(-c2ccc3ncc(C(=O)N4CCC(O)CC4)n3c2)cc1NS(=O)(=O)c1ccc(F)cc1F
11,> 20000,COc1ncc(-c2ccc3ncn(CCCn4cccn4)c(=O)c3c2)cc1NS(=O)(=O)c1ccc(F)cc1F

# Test system: MDA-MB-231
# Experiment: Antiproliferative activity against human MDA-MB-231 cells after 72 hrs by SRB assay
# Conditions: MDA-MB-231, 72 h
row,IC50 [nM],Structure (SMILES)
1,190,CCOC(=O)c1cnc2ccc(-c3cnc(OC)c(NS(C)(=O)=O)c3)cn12
2,1450,COc1ncc(-c2ccc3ncc(C(=O)N4CCC(OC(=O)c5ccccc5)CC4)n3c2)cc1NS(=O)(=O)c1ccc(F)cc1F
3,530,CCOC(=O)c1cnc2ccc(-c3cnc(OC)c(NS(=O)(=O)c4ccc(F)cc4)c3)cn12
4,> 20000,CCOC(=O)c1cn2cc(-c3cnc(OC)c(NS(=O)(=O)c4ccc(F)cc4)c3)ccc2n1
5,2320,CCCCS(=O)(=O)Nc1cc(-c2ccc3ncc(C(=O)OCC)n3c2)cnc1OC
6,120,CCOC(=O)Cn1cnc2ccc(-c3cnc(OC)c(NS(=O)(=O)c4ccc(F)cc4F)c3)cc2c1=O
7,2150,COc1ncc(-c2ccc3ncn(CCCCCC(=O)N4CCOCC4)c(=O)c3c2)cc1NS(=O)(=O)c1ccc(F)cc1F
8,1800,COc1ncc(-c2ccc3ncc(C(=O)NCCN(C)C)n3c2)cc1NS(=O)(=O)c1ccc(F)cc1F
9,150,CCOC(=O)c1cc2cc(-c3cnc(OC)c(NS(=O)(=O)c4ccc(F)cc4)c3)ccc2[nH]1
10,630,COc1ncc(-c2ccc3ncc(C(=O)N4CCC(O)CC4)n3c2)cc1NS(=O)(=O)c1ccc(F)cc1F
11,> 20000,COc1ncc(-c2ccc3ncn(CCCn4cccn4)c(=O)c3c2)cc1NS(=O)(=O)c1ccc(F)cc1F
